Test results from patent US11260100B2, “Compositions targeting the interaction domain between p27Kip1 and Brk and methods of use thereof to inhibit p27 Y phosphorylation and cdk4 activity” (The Research Foundation for the State University of New York, priority 2014, dated 2022).

System: MCF7 mock, WT, KM and YF cells
Assay: Viability of PD0332991 treated Brk expressing MCF7 lines
Format: cell-based, human
Conditions: all concentrations of the drug
From the text: The PCR fragments were ligated to the T7pGEMEX human His-p27 or T7pGEMEX human Flag-p27 plasmid for expression in E. coli. Mutants Y74F, Y88F, and Y88/89F were previously described (12). Flag-tagged p27 mutants were purified by Flag-immunoprecipitation with Flag antibody (M-2, Sigma F-18C9) and eluted with Flag peptide (Sigma F-4799) according to manufacturer's protocol. His-tagged p27 mutants were purified by FPLC via his-trap affinity chromatography (His-Trap HP, GE Healthcare 71-5247-01). The affinity column was stripped according to manufacturer's protocol, then washed with 5 column volumes of 100 mM CoCl2. The crude material was applied with a loading buffer consisting of 6 M urea, 500 mM NaCl, 50 mM Tris-HCl, pH 7.5 and 20% glycerol. The material was washed with 500 mM NaCl, 50 mM Tris-HCl, pH 7.5 and 10% glycerol. The purified material was eluted with 500 mM imidazole,20 mM Hepes pH 7.4 and 1 M KCl. The protein was then dialyzed overnight in a solution of 25 mM Hepes pH 7.7, 150 mM NaCl, 5 mM MgCl2 and 0.05% NP40. All purified proteins were analyzed by Coomassie and immunoblot analysis. […] Cells were counted using the automated cell counter (BioRad TC-20).Viability was measured by Trypan Blue staining and counted using the cell counter. • Immunoprecipitation. […]

CC(=O)c1c(C)c2cnc(Nc3ccc(N4CCNCC4)cn3)nc2n(C2CCCC2)c1=O [PD0332991]
viability: unchanged
